Test results as given in ChEMBL document CHEMBL3228036, “A new chemical series active against African trypanosomes: benzyltriphenylphosphonium salts” (J Med Chem, 1979).
The source made the active and inactive calls. The rule behind the calls is not given here.

How the values were obtained:
Mus musculus [1] = assay: Toxicity in Trypanosoma brucei rhodesiense Wellcome CT infected ICR/HA mouse assessed as mortality at 424 mg/kg, po treated within 2 hrs of parasite infection measured up to 30 days; type: organism-based; design: dose 424 mg/kg, route oral; settings: in vivo
Mus musculus [2] = assay: Toxicity in Trypanosoma brucei rhodesiense Wellcome CT infected ICR/HA mouse assessed as mortality at 212 mg/kg, po treated within 2 hrs of parasite infection measured up to 30 days; type: organism-based; design: dose 212 mg/kg, route oral; settings: in vivo
Mus musculus [3] = assay: Toxicity in Trypanosoma brucei rhodesiense Wellcome CT infected ICR/HA mouse assessed as mortality at 424 mg/kg, sc treated within 2 hrs of parasite infection measured up to 30 days; type: organism-based; design: dose 424 mg/kg, route subcutaneous; settings: in vivo
[4] = tested on: Trypanosoma brucei rhodesiense; assay: […] activity against Trypanosoma brucei rhodesiense Wellcome CT infected in ICR/HA mouse assessed as curated mouse at 26.5 mg/kg, sc treated within 2 hrs of parasite infection measured up to 30 days; type: functional
Mus musculus [5] = assay: Toxicity in Trypanosoma rhodesiense Wellcome CT infected ICR/HA mouse assessed as mortality at 106 mg/kg, sc treated within 2 hrs of parasite infection measured up to 30 days; type: organism-based; design: dose 106 mg/kg, route subcutaneous; settings: in vivo
[6] = tested on: Trypanosoma brucei rhodesiense; assay: […] activity against Trypanosoma brucei rhodesiense Wellcome CT infected in ICR/HA mouse assessed as curated mouse at 212 mg/kg, po treated within 2 hrs of parasite infection measured up to 30 days; type: functional, organism-based; design: dose 212 mg/kg
[7] = tested on: Trypanosoma brucei rhodesiense; assay: […] activity against Trypanosoma brucei rhodesiense Wellcome CT infected in ICR/HA mouse assessed as curated mouse at 424 mg/kg, sc treated within 2 hrs of parasite infection measured up to 30 days; type: functional, organism-based; design: dose 424 mg/kg
[8] = tested on: Trypanosoma brucei rhodesiense; assay: […] activity against Trypanosoma brucei rhodesiense Wellcome CT infected in ICR/HA mouse assessed as curated mouse at 106 mg/kg, po treated within 2 hrs of parasite infection measured up to 30 days; type: functional, organism-based; design: dose 106 mg/kg
[9] = tested on: Trypanosoma brucei rhodesiense; assay: […] activity against Trypanosoma brucei rhodesiense Wellcome CT infected in ICR/HA mouse assessed as curated mouse at 13.3 mg/kg, po treated within 2 hrs of parasite infection measured up to 30 days; type: functional, organism-based; design: dose 13.3 mg/kg
[10] = tested on: Trypanosoma brucei rhodesiense; assay: […] activity against Trypanosoma brucei rhodesiense Wellcome CT infected in ICR/HA mouse assessed as curated mouse at 26.5 mg/kg, po treated within 2 hrs of parasite infection measured up to 30 days; type: functional, organism-based; design: dose 26.5 mg/kg
[11] = tested on: Trypanosoma brucei rhodesiense; assay: […] activity against Trypanosoma brucei rhodesiense Wellcome CT infected in ICR/HA mouse assessed as curated mouse at 424 mg/kg, po treated within 2 hrs of parasite infection measured up to 30 days; type: functional, organism-based; design: dose 424 mg/kg
[12] = tested on: Trypanosoma brucei rhodesiense; assay: […] activity against Trypanosoma brucei rhodesiense Wellcome CT infected in ICR/HA mouse assessed as curated mouse at 53 mg/kg, po treated within 2 hrs of parasite infection measured up to 30 days; type: functional, organism-based; design: dose 53 mg/kg
[13] = tested on: Trypanosoma brucei rhodesiense; assay: […] activity against Trypanosoma brucei rhodesiense Wellcome CT infected in ICR/HA mouse assessed as curated mouse at 13.3 mg/kg, sc treated within 2 hrs of parasite infection measured up to 30 days; type: functional, organism-based; design: dose 13.3 mg/kg

FC(F)(F)c1ccc(C[P+](c2ccccc2)(c2ccccc2)c2ccccc2)cc1.[Cl-]
Activity (Mus musculus [1]): Toxic | Activity (Mus musculus [2]): Toxic | Activity (Mus musculus [3]): Toxic | Activity [4]: inactive | Activity (Mus musculus [5]): Toxic | Activity [6]: inactive | Activity [7]: inactive | Activity [8]: inactive | Activity [9]: inactive | Activity [10]: inactive | Activity [11]: inactive | Activity [12]: inactive | Activity [13]: inactive
